Experimental data published in publication PMC6522510 (Nature Communications, 2019).
Like-named read-outs stand apart in the source and are kept apart here.

Tests used:
[1] = test system: ML2; experiment: Secondary dose-response HTS, Cell Titer Glo; assay type: cell-based, human; conditions: ML-2; for EC50: Homo sapiens
[2] = test system: MOLM-13; experiment: cells; parameters: species or system AML cell lines (8); Secondary HTS, 10-point dose-response in triplicate, Cell Titer Glo viability, four-parameter fit EC50; conditions: Homo sapiens; 72 h cell viability; read-out: MOLM-13
[3] = test system: MV4-11; experiment: cells; parameters: species or system AML cell lines (8); conditions: Homo sapiens, MV4-11, 72 h, read-out: MV4-11
[4] = test system: CHRF288-11; experiment: cells; parameters: species or system AML cell lines (8); conditions: 72 h, read-out: CHRF288-11
[5] = test system: CMK; experiment: cells; parameters: species or system AML cell lines (8); conditions: Homo sapiens, 72 h, read-out: CMK
[6] = test system: CMS; experiment: cells; parameters: species or system AML cell lines (8); conditions: 72 h, read-out: CMS
[7] = test system: M07e; experiment: cells; parameters: species or system AML cell lines (8); conditions: M-07e, 72 h, read-out: M07e
[8] = test system: U937; experiment: cells; parameters: species or system AML cell lines (8); conditions: Homo sapiens, U-937, 72 h, read-out: U937
[9] = test system: MOLM-13; experiment: Secondary dose-response HTS, Cell Titer Glo; assay type: cell-based, human; conditions: Homo sapiens, MOLM-13
[10] = test system: MV4-11; experiment: Secondary dose-response HTS, Cell Titer Glo; assay type: cell-based, human; conditions: Homo sapiens, MV4-11
[11] = test system: CHRF288-11; experiment: Secondary dose-response HTS, Cell Titer Glo; assay type: cell-based, human; conditions: Homo sapiens
[12] = test system: CMK; experiment: Secondary dose-response HTS, Cell Titer Glo; assay type: cell-based, human; conditions: Homo sapiens, CMK
[13] = test system: CMS; experiment: Secondary dose-response HTS, Cell Titer Glo; assay type: cell-based, human; conditions: Homo sapiens
[14] = test system: M07e; experiment: Secondary dose-response HTS, Cell Titer Glo; assay type: cell-based, human; conditions: Homo sapiens, M-07e
[15] = test system: U937; experiment: Secondary dose-response HTS, Cell Titer Glo; assay type: cell-based, human; conditions: Homo sapiens, U-937
[16] = test system: MLLr primary AML blast samples; experiment: Ex vivo drug treatment of primary AML blasts on mesenchymal stromal cells; assay type: cell-based; conditions: Homo sapiens; primary blasts on MSC, 96 h, range over patient samples
[17] = test system: AMKL primary AML blast samples; experiment: as above; assay type: cell-based; conditions: Homo sapiens; primary blasts on MSC, 96 h
[18] = test system: ML-2; experiment: cells; parameters: species or system AML cell lines (8); conditions: Homo sapiens, ML-2, 72 h, read-out: ML-2
[19] = secondary high-throughput screen, read-out: average effective concentration, ML-2
[20] = secondary HTS, 72 h, average of triplicate, read-out: EC50 MOLM-13
[21] = secondary high-throughput screen, read-out: average effective concentration, MOLM-13
[22] = secondary HTS, 72 h, average of triplicate, read-out: EC50 MV4-11
[23] = secondary high-throughput screen, read-out: average effective concentration, MV4-11
[24] = secondary HTS, 72 h, average of triplicate, read-out: EC50 CHRF288-11
[25] = secondary high-throughput screen, read-out: average effective concentration, CMK
[26] = secondary HTS, 72 h, average of triplicate, read-out: EC50 M07e
[27] = secondary high-throughput screen, M07e, read-out: average effective concentration, M07e
[28] = secondary HTS, 72 h, average of triplicate, read-out: EC50 ML2
[29] = secondary HTS, 72 h, average of triplicate, read-out: EC50 U937
[30] = secondary high-throughput screen, U937, read-out: average effective concentration, U937
[31] = HTS, secondary high-throughput screen, CHRF288-11, read-out: average effective concentration, CHRF288-11
[32] = HTS, secondary high-throughput screen, CMS, read-out: average effective concentration, CMS

SMILES	EC50 [1, 19] [nM]	EC50 [2] [nM]	EC50 [3] [nM]	EC50 [4] [nM]	EC50 [5] [nM]	EC50 [6] [nM]	EC50 [7] [nM]	EC50 [8] [nM]	EC50 [9, 21] [nM]	EC50 [12, 25] [nM]	EC50 [18] [nM]	other results
CC[C@H](NC(=O)[C@H](C)NC)C(=O)N1C[C@@H](O)C[C@H]1Cc1c(-c2[nH]c3cc(F)ccc3c2C[C@@H]2C[C@H](O)CN2C(=O)[C@H](CC)NC(=O)[C@H](C)NC)[nH]c2cc(F)ccc12 [BIRINAPANT]	1	> 10000	> 10000	> 10000	> 10000	> 10000	> 10000	> 10000				
CC(C)C[C@H](NC(=O)[C@H](Cc1ccccc1)NC(=O)c1cnccn1)B(O)O [Bortezomib, reference compound]	1.2								1.7	7.6		EC50 [9, 20]: 2 nM; EC50 [10, 22]: 2 nM; EC50 [10, 23]: 2.3 nM; EC50 [11, 24]: 2 nM; EC50 ([12]; secondary HTS, 72 h, average of triplicate, read-out: EC50 CMK): 10 nM; EC50 ([13]; secondary HTS, 72 h, average of triplicate, read-out: EC50 CMS): 1 nM; EC50 [14, 26]: 1 nM; EC50 [14, 27]: 1.5 nM; EC50 [1, 28]: 1 nM; EC50 [15, 29]: 20 nM; EC50 [15, 30]: 21 nM; IC50 [16]: 1.6 to 5 nM; IC50 [17]: 20 nM
O=C(O)CCCc1ccc(N(CCCl)CCCl)cc1 [CHLORAMBUCIL]									10000	5900	> 10000	EC50 [10, 23]: 8400 nM; EC50 [11, 31]: 4900 nM; EC50 [13, 32]: 7000 nM; EC50 ([14]; secondary high-throughput screen, […], read-out: average effective concentration, M07e): 6900 nM; average effective concentration, ML-2 ([1]; secondary high-throughput screen): Inactive; EC50 [15, 30]: 6100 nM
NC(=O)c1cccc(N)c1 [Compound 3-AMINOBENZAMIDE]	3200		> 10000		> 10000	> 10000	> 10000	> 10000	3200			EC50 [11, 31]: 3000 nM
CO[C@H]1C[C@@H]2CC[C@@H](C)[C@@](O)(O2)C(=O)C(=O)N2CCCC[C@H]2C(=O)O[C@H]([C@H](C)C[C@@H]2CC[C@@H](OCCO)[C@H](OC)C2)CC(=O)[C@H](C)/C=C(\C)[C@@H](O)[C@@H](OC)C(=O)[C@H](C)C[C@H](C)/C=C/C=C/C=C/1C [EVEROLIMUS]		> 10000	> 10000	> 10000	> 10000	> 10000	> 10000	> 10000			> 10000	
Cc1c(CN2CCN(C(=O)[C@H](C)O)CC2)sc2c(N3CCOCC3)nc(-c3cnc(N)nc3)nc12 [GDC-0980]		> 10000	> 10000	> 10000		> 10000	> 10000	> 10000		520	> 10000	
O=P1(NCCCl)OCCCN1CCCl (stereo not shown) [IFOSFAMIDE]		> 10000	> 10000	> 10000	> 10000	> 10000	> 10000	> 10000			> 10000	
Cc1oncc1C(=O)Nc1ccc(C(F)(F)F)cc1 [LEFLUNOMIDE]		> 10000	> 10000	> 10000	> 10000	> 10000	> 10000	> 10000			> 10000	
Cc1[nH]c2ccccc2c1CCNCc1ccc(/C=C/C(=O)NO)cc1 [Panobinostat, reference compound]	12											EC50 [9, 20]: 180 nM; EC50 [10, 22]: 130 nM; EC50 [11, 24]: 10 nM; EC50 ([12]; 72 h, read-out: EC50 CMK): 3 nM; EC50 ([12]; read-out: average effective concentration, CMK): 2.85 nM; EC50 ([13]; HTS, 72 h, read-out: EC50 CMS): 30 nM; EC50 ([13]; HTS, read-out: average effective concentration, CMS): 28 nM; EC50 [14, 26]: 5 nM; EC50 [14, 27]: 4.64 nM; EC50 [1, 28]: 10 nM; EC50 [15, 29]: 10 nM; IC50 [16]: 0.9 to 3.3 nM; IC50 [17]: 14 nM
C[C@@H]1C[C@H]2O[C@@H]2/C=C\C=C\C(=O)Cc2c(Cl)c(O)cc(O)c2C(=O)O1 [RADICICOL]	61						> 10000		27	66		EC50 [10, 23]: 21 nM; EC50 [11, 31]: 92 nM; EC50 [13, 32]: 110 nM; EC50 [15, 30]: 15 nM
NC(=O)c1ncn([C@@H]2O[C@H](CO)[C@@H](O)[C@H]2O)n1 [RIBAVIRIN]		> 10000	> 10000	> 10000	> 10000	> 10000		> 10000			> 10000	EC50 [14, 27]: 9300 nM
